Data reported in ChEMBL document CHEMBL1201862, “PubChem BioAssay data set” (2004).
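48-hour exposure; five concentrations; linearly interpolated endpoints. GI50 is the concentration that inhibits growth by half.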 Activity calls are given as the source filed them. Rule as the data show it: active = GI50 up to about 1.1 µM and inactive = higher.

What was measured:
Test in all cases: NCI-60 cell line screen, 48 h
EKVX = tested on: EKVX
IGROV-1 = tested on: IGROV-1
PC-3 = tested on: PC-3
MCF7 = tested on: MCF7
RXF 393 = tested on: RXF 393
NCI-H23 = tested on: NCI-H23
OVCAR-3 = tested on: OVCAR-3
HCT-15 = tested on: HCT-15
SF-268 = tested on: SF-268
MDA-N = tested on: MDA-N
OVCAR-8 = tested on: OVCAR-8
UACC-62 = tested on: UACC-62
SW-620 = tested on: SW-620
LOX IMVI = tested on: LOX IMVI
SNB-19 = tested on: SNB-19
SNB-75 = tested on: SNB-75
HOP-62 = tested on: HOP-62
M14 = tested on: M14
SK-OV-3 = tested on: SK-OV-3
NCI-H226 = tested on: NCI-H226

Row | SMILES | GI50 (EKVX) | GI50 (IGROV-1) | GI50 (PC-3) | GI50 (MCF7) | GI50 (RXF 393) | GI50 (NCI-H23) | GI50 (OVCAR-3) | GI50 (HCT-15) | GI50 (SF-268) | GI50 (MDA-N) | GI50 (OVCAR-8) | GI50 (UACC-62) | GI50 (SW-620) | GI50 (LOX IMVI) | GI50 (SNB-19) | GI50 (SNB-75) | GI50 (HOP-62) | GI50 (M14) | GI50 (SK-OV-3) | GI50 (NCI-H226)
1 | CCCCCCCCCCCCN(CC(O)C(O)C(OC1OC(CO)C(O)C(O)C1O)C(O)CO)C(=O)CCCCCCCCCCC (stereo not given) | 18.8 µM (inactive) | 19.9 µM (inactive) | 25.2 µM (inactive) | 28.1 µM (inactive) | 26.9 µM (inactive) | 21.4 µM (inactive) | 21.8 µM (inactive) | 18.6 µM | 20.1 µM (inactive) | 21 µM (inactive) | 23 µM (inactive) | 20.2 µM (inactive) | 19 µM (inactive) | 21.3 µM (inactive) | 17.9 µM (inactive) | 18.5 µM (inactive) | 25.8 µM (inactive) | 19.5 µM (inactive) | 22.3 µM (inactive) | 23.4 µM (inactive)
2 | S=c1[nH]c2ccc(Br)cc2c(=S)s1 | 27.8 µM (inactive) | 22.1 µM (inactive) | 19.3 µM (inactive) | 17.9 µM (inactive) | 27.6 µM (inactive) | 25.6 µM (inactive) | 26.5 µM (inactive) | 29.5 µM | 34.4 µM (inactive) | 23.4 µM (inactive) | 31.6 µM (inactive) | 18 µM (inactive) | 30.8 µM (inactive) | 32.4 µM (inactive) | 31.5 µM (inactive) | 28.1 µM (inactive) | 34.8 µM (inactive) | 30.5 µM (inactive) | 30 µM (inactive) | 28.7 µM (inactive)
3 | CCOP(=O)(OCC)/C(C#N)=C/c1ccnc2ccccc12 | 53.3 µM (inactive) | 45 µM (inactive) | 17.6 µM (inactive) | 18.8 µM (inactive) | 23.2 µM (inactive) | 24.3 µM (inactive) | 20.3 µM (inactive) | 21.3 µM | 18.4 µM (inactive) | 21.9 µM (inactive) | 15 µM (inactive) | 26.1 µM (inactive) | 27.3 µM (inactive) | 31.6 µM (inactive) | 21.4 µM (inactive) | 25.9 µM (inactive) | 40.8 µM (inactive) | 20.1 µM (inactive) | 36.2 µM (inactive) | 24.8 µM (inactive)
4 | O=C1C(Br)=CC2(C=C1Br)CCNC1=C2C(=O)c2ncccc2C1=O | 1.65 µM (inactive) | 0.54 µM (active) | 1.95 µM (inactive) | 1.14 µM (inactive) | 1 µM (active) | 0.39 µM (active) | 1.62 µM (inactive) | 0.618 µM | 1.49 µM (inactive) | 0.183 µM (active) | 1.44 µM (inactive) | 0.641 µM (active) | 1.1 µM (active) | 0.313 µM (active) | 1.28 µM (inactive) | 1.4 µM (inactive) | 0.542 µM (active) | 1.55 µM (inactive) | 2.03 µM (inactive) | 1.67 µM (inactive)
5 | CN(C)CC1CC/C(=C\c2ccc3c(c2)OCO3)C1=O (stereo not given) | 18.9 µM (inactive) | 9.75 µM (inactive) | 13.6 µM (inactive) | 3.96 µM (inactive) | 15.7 µM (inactive) | 9.62 µM (inactive) | 7.74 µM (inactive) | 6.67 µM | 11.2 µM (inactive) | 4.42 µM (inactive) | 8.61 µM (inactive) | 16.7 µM (inactive) | 6.4 µM (inactive) | 1.95 µM (inactive) | 16.2 µM (inactive) | 5.53 µM (inactive) | > 51.6 µM (inactive) | 7.4 µM (inactive) | > 43.1 µM (inactive) | 20.4 µM (inactive)
6 | O=C1OC(OC/C(Br)=C(\Br)COC2OC(=O)C(Cl)=C2Cl)C(Cl)=C1Cl (stereo not given) | 9.57 µM (inactive) | 12.3 µM (inactive) | 14.1 µM (inactive) | 4.41 µM (inactive) | 2.39 µM (inactive) | 3.18 µM (inactive) | 3.95 µM (inactive) | 2.8 µM | 8.43 µM (inactive) | 3.65 µM (inactive) | 2.4 µM (inactive) | 6.3 µM (inactive) | 2.39 µM (inactive) | 2.58 µM (inactive) | 17.1 µM (inactive) | 15.9 µM (inactive) | 14.5 µM (inactive) | 3.66 µM (inactive) | 22.2 µM (inactive) | 12.8 µM (inactive)
7 | Cc1ccc(S(=O)(=O)N/N=C/C(Br)=C(/Br)C(=O)O)cc1 | 10.2 µM (inactive) | 16.1 µM (inactive) | 8.89 µM (inactive) | 7.41 µM (inactive) | 2.21 µM (inactive) | 6.1 µM (inactive) | 6.97 µM (inactive) | 2.19 µM | 11.4 µM (inactive) | 4.69 µM (inactive) | 2.6 µM (inactive) | 8.17 µM (inactive) | 2.2 µM (inactive) | 3.03 µM (inactive) | 13.8 µM (inactive) | 22.1 µM (inactive) | 16.2 µM (inactive) | 4.53 µM (inactive) | 16.4 µM (inactive) | 8.55 µM (inactive)
